Assay results reported in PMC4777480, “Trichoderma harzianum Produces a New Thermally Stable Acid Phosphatase, with Potential for Biotechnological Application” (PLoS ONE, 2016).

T1: ACPase II (Trichoderma harzianum, UniProt A0A2T3ZY58)
T1 construct: gene M431DRAFT_96728
T1 sequence (A0A2T3ZY58 21-556): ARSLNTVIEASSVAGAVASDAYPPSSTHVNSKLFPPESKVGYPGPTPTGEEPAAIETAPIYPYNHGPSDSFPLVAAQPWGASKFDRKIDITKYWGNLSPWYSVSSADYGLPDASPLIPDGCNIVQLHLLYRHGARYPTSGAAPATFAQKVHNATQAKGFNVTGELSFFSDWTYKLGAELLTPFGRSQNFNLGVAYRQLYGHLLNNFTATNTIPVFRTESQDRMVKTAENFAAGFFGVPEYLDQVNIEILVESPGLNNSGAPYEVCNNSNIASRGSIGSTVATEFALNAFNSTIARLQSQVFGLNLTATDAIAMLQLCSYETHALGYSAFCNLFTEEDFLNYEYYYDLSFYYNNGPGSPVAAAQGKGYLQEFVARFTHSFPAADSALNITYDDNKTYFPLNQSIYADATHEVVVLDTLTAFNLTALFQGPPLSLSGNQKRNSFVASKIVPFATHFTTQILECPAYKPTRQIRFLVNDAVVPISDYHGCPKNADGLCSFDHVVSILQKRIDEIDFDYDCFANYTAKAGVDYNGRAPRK


Experiments:
ACPase II = target: T1, ACPase II; settings: 5000 µM; 5 mM inorganic phosphate, 60°C; Table 3 gives residual activity instead
[1] = target: the molecule itself; assay: SEC + other: dynamic light scattering; data not shown; ACPase II in solution, eluted in the void volume; hydrodynamic radius 14.3 nm, mass 326 kDa; conditions of the light scattering not told

ACPase II (ACPase II) [%]	Molecule	stoichiometry N [1]
65.0 ± 2.0	O=P(O)(O)O [sodium phosphate]	–
–	ACPase II (acid phosphatase II) from Trichoderma harzianum (enzyme, glycoprotein, approximately 30% carbohydrate (N- and O-glycosylation)) ARSLNTVIEASSVAGAVASDAYPPSSTHVNSKLFPPESKVGYPGPTPTGEEPAAIETAPIYPYNHGPSDSFPLVAAQPWGASKFDRKIDITKYWGNLSPWYSVSSADYGLPDASPLIPDGCNIVQLHLLYRHGARYPTSGAAPATFAQKVHNATQAKGFNVTGELSFFSDWTYKLGAELLTPFGRSQNFNLGVAYRQLYGHLLNNFTATNTIPVFRTESQDRMVKTAENFAAGFFGVPEYLDQVNIEILVESPGLNNSGAPYEVCNNSNIASRGSIGSTVATEFALNAFNSTIARLQSQVFGLNLTATDAIAMLQLCSYETHALGYSAFCNLFTEEDFLNYEYYYDLSFYYNNGPGSPVAAAQGKGYLQEFVARFTHSFPAADSALNITYDDNKTYFPLNQSIYADATHEVVVLDTLTAFNLTALFQGPPLSLSGNQKRNSFVASKIVPFATHFTTQILECPAYKPTRQIRFLVNDAVVPISDYHGCPKNADGLCSFDHVVSILQKRIDEIDFDYDCFANYTAKAGVDYNGRAPRK	4
